Values of other authors in patent US9371350B2, “Trehalose derivatives and pharmaceutical compositions for treating neurodegenerative diseases” (POSTECH ACADEMY-INDUSTRY FOUNDATION, priority 2008, dated 2016).

Legend:
[1] = background, literature report
[2] = test system: polyglutamine-induced aggregate formation; conditions: in vivo mouse model, literature report

| SMILES | passage through the BBB to the brain [1] | inhibition of polyglutamine-induced aggregate formation [2] |
| --- | --- | --- |
| O[C@H]1[C@H](O)[C@@H](O)[C@H](O)[C@@H](O)[C@H]1O [inositol] | difficulty in passing through the blood-brain barrier |  |
| OC[C@H]1O[C@H](O[C@H]2O[C@H](CO)[C@@H](O)[C@H](O)[C@H]2O)[C@H](O)[C@@H](O)[C@@H]1O [trehalose] | cannot pass through the BBB | efficiently inhibit |
